{"source": "patent US8431606B2", "about": "“Medicament for treating schizophrenia comprising cilostazol” (Otsuka Pharmaceutical Co., Ltd., priority 2007, dated 2013)", "assay_type_in_all_cases": "in vivo", "key": {"[1]": {"tested_on": "dizocilpine-induced PPI deficits in mice", "assay": "prepulse inhibition of the acoustic startle reflex, dizocilpine-induced PPI deficits in mice", "details": "dizocilpine 0.1 mg/kg, cilostazol administered one hour before testing, dose dependent manner", "description": "The test animals were prepared by similar means of the above Example 2. Cilostazol was administered one hour before testing. Testing was conducted in eight startle devices each consisting of a Plexiglas cylinder (5 cm in diameter) mounted on a Plexiglas platform in a ventilated sound attenuated cubicle with a high-frequency loudspeaker producing all acoustic stimuli. The background noise of each chamber was 65 dB. Movements within the cylinder were detected and transduced by a piezoelectric accelerometer attached to the Plexiglas base and digitized and stored by a computer. Beginning at the stimulus onset, readings were recorded to obtain the animals' startle amplitude. Each section was initiated with a 10 minutes acclimation period followed by six successive trials, which were not included in the analysis. Startle pulse alone (ST110, 110 dB/40 msec); eight different prepulse trials in which either 20-msec-long 69, 73, 77, and 81 dB stimuli were presented alone (P69, P73, P77, P81) or preceded the 110 dB pulse by 100 msec (PP69, PP73, PP77, PP81); and finally one trial in which only the background noise was presented to measure the baseline movements in the cylinder. All trials were presented in a pseudorandom order, and the average intertrial interval (ITI) was […]. The startle data and percentage prepulse inhibition (PPI) were analyzed by MANOVA (two-ways ANOVA)."}, "[2]": {"tested_on": "model animals prepared with phencyclidine", "assay": "re-recognizing test for a new object in model animals prepared with phencyclidine", "details": "male ICR mice, phencyclidine 10 mg/kg s.c. 10 days", "description": "Male ICR mice (6 weeks old, 25-30 g, purchased from Japan SLC, Inc.) were used as experimental animals. The experimental procedure was approved by the laboratory animal ethics committee in the Graduate School of Medicine and School of Medicine, Chiba University. Phencyclidine was subcutaneously administered to the mice in 10 mg/kg once a day for 10 days. […] Twenty four hours after the final administration, re-recognizing test for a new object was carried out. The re-recognizing test for a new object was carried out using a black open-field (50.8×50.8×25.4 cm). The mice were made to be trained in the open-field for three days before starting the re-recognizing test for a new object. Two objects which have almost the same size but different shapes and colors were set separating off in a distance of 35.5 cm, and then the mice were made to seek for 10 minutes. After the seeking, the mice were put back to the gauge. Twenty four hours after the first seeking, a memory retention test was carried out. On this memory retention test, one of the objects was replaced by a new one. The mice were made to seek for 5 minutes, and the time which was taken to seek each object was recorded. The results were shown as a ratio of the seeking time of the new object against that of the two objects. The data were shown as mean±standard deviation. The statistical analyses thereof were carried out using one-way ANOVA and post-hoc Bonferroni test. A p-value of 0.05 or less was considered as a statistical significance."}, "[3]": {"tested_on": "locomotion of mice enhanced by administering dizocilpine", "assay": "dizocilpine-induced hyperlocomotion in mice", "details": "male ddY mice; cilostazol 0.03-3.0 mg/kg orally 30 minutes before dizocilpine 0.1 mg/kg s.c.; locomotion measured for 2 hours", "description": "In this experiment, cilostazol was studied about the effect affecting the locomotion of mice which was enhanced by administering dizocilpine.\nMale ddY mice (7-8 weeks old) were put in a scanning apparatus of spontaneous motor activity (SCANET SV-10, Melquest, Toyama, Japan). After 30 minutes, vehicle (0.3% CMC) or cilostazol (0.03, 0.1, 0.3, 1.0, and 3.0 mg/kg) was orally administered to the mice, and after additional 30 minutes dizocilpine (0.1 mg/kg) was administered subcutaneously. Then, the locomotion of the mice was measured for 2 hours."}}, "data": [{"smiles": "O=C1CCc2cc(OCCCCc3nnnn3C3CCCCC3)ccc2N1", "note": "[cilostazol, 6-[4-(1-cyclohexyl-1H-tetrazol-5-yl)butoxy]-3,4-dihydrocarbostyril]", "values": [{"measurement": "PPI deficits caused by administration of dizocilpine", "setting": "[1]", "result": "significantly inhibited"}, {"measurement": "condition of schizophrenia caused by phencyclidine (ratio of the seeking time of the new object)", "setting": "[2]; cilostazol 3 mg/kg orally once a day for two weeks", "result": "improved significantly"}, {"measurement": "condition of schizophrenia caused by phencyclidine (ratio of the seeking time of the new object)", "setting": "[2]; cilostazol 10 mg/kg orally once a day for two weeks", "result": "improved significantly"}, {"measurement": "condition of schizophrenia caused by phencyclidine (ratio of the seeking time of the new object)", "setting": "[2]; cilostazol 30 mg/kg orally once a day for two weeks", "result": "improved significantly"}, {"measurement": "condition of schizophrenia caused by phencyclidine (ratio of the seeking time of the new object)", "setting": "[2]; cilostazol orally once a day for two weeks, dose-dependently", "result": "improved"}, {"measurement": "locomotion enhanced by administering dizocilpine", "setting": "[3]", "result": "significantly inhibited"}]}]}
